This note sets out measurements from ChEMBL document CHEMBL1140507, “Synthesis and evaluation of N-acylsulfonamide and N-acylsulfonylurea prodrugs of a prostacyclin receptor agonist” (Bioorg Med Chem, 2007).

The structures appear in SMILES notation.

Data set [1] relates to Cynomolgus monkey. In words: Cmax in cynomolgus monkey assessed as 2-(4-((5,6-diphenylpyrazin-2-yl)(isopropyl)amino)butoxy)acetic acid level at 1 mg/kg, po. Format: ADME, organism-based, Macaca fascicularis. Further details: dose 1 mg/kg, route oral. Conditions: in vivo.
Data set [2] relates to Cynomolgus monkey. In words: Half life in cynomolgus monkey assessed as 2-(4-((5,6-diphenylpyrazin-2-yl)(isopropyl)amino)butoxy)acetic acid at 1 mg/kg, po. The data set is classed as ADME, organism-based, Macaca fascicularis. More on the design: dose 1 mg/kg, route oral. Conditions: in vivo.
Data set [3] relates to Liver microsomes. The data set is described as follows: Hydrolytic rate in human hepatic microsomes assessed as 2-(4-((5,6-diphenylpyrazin-2-yl)(isopropyl)amino)butoxy)acetic acid production per mg of protein at 10 uM. The data set is classed as ADME, Microsome.
The subject of data set [4] is Cynomolgus monkey. The data set is described as follows: Tmax in cynomolgus monkey assessed as 2-(4-((5,6-diphenylpyrazin-2-yl)(isopropyl)amino)butoxy)acetic acid level at 1 mg/kg, po. Further details: dose 1 mg/kg, route oral. As to conditions: in vivo. Format: ADME, organism-based, Macaca fascicularis.
The subject of data set [5] is Cynomolgus monkey. The data set is described as follows: AUC (0 to 24 hrs) in cynomolgus monkey assessed as 2-(4-((5,6-diphenylpyrazin-2-yl)(isopropyl)amino)butoxy)acetic acid at 1 mg/kg, po. Format: ADME, organism-based, Macaca fascicularis, Plasma. More on the design: time < 24 hr, dose 1 mg/kg, route oral. Conditions: in vivo.
The nature of data set [6]: Hydrolytic rate in cynomolgus monkey hepatic microsomes assessed as 2-(4-((5,6-diphenylpyrazin-2-yl)(isopropyl)amino)butoxy)acetic acid production per mg of protein at 10 uM. Format: ADME, Macaca fascicularis, Liver.
For a further data set, the system named is Plasma. The data set is described as follows: Hydrolytic rate in Sprague-Dawley rat plasma assessed as 2-(4-((5,6-diphenylpyrazin-2-yl)(isopropyl)amino)butoxy)acetic acid production per mg of protein at 10 uM. The data set is classed as ADME, cell-free.
The nature of data set [7]: Hydrolytic rate in cynomolgus monkey hepatic microsomes assessed as 2-(4-((5,6-diphenylpyrazin-2-yl)(isopropyl)amino)butoxy)acetic acid production in presence of 1000 uM PMSF relative to control. The data set is classed as ADME, Macaca fascicularis, Liver. Further details: scale not given: the % may be the effect or the level left.
Data set [8] can be described thus: Hydrolytic rate in cynomolgus monkey hepatic microsomes assessed as 2-(4-((5,6-diphenylpyrazin-2-yl)(isopropyl)amino)butoxy)acetic acid production in presence of 100 uM PMSF relative to control. Format: ADME, Macaca fascicularis, Liver. More on the design: scale not given: the % may be the effect or the level left.
Data set [9] relates to Liver microsomes. In words: Hydrolytic rate in Sprague-Dawley rat hepatic microsomes assessed as 2-(4-((5,6-diphenylpyrazin-2-yl)(isopropyl)amino)butoxy)acetic acid production per mg of protein at 10 uM. The data set is classed as ADME, Microsome.
Data set [10] can be described thus: Hydrolytic rate in cynomolgus monkey hepatic microsomes assessed as 2-(4-((5,6-diphenylpyrazin-2-yl)(isopropyl)amino)butoxy)acetic acid production in presence of 10 uM PMSF relative to control. Format: ADME, Macaca fascicularis, Liver. More on the design: scale not given: the % may be the effect or the level left.
A short description of data set [11]: Hydrolytic rate in Beagle dog hepatic microsomes assessed as 2-(4-((5,6-diphenylpyrazin-2-yl)(isopropyl)amino)butoxy)acetic acid production per mg of protein at 10 uM. The data set is classed as ADME, Canis lupus familiaris, Liver.

Turning to `CC(C)N(CCCCOCC(=O)NS(=O)(=O)C(C)C)c1cnc(-c2ccccc2)c(-c2ccccc2)n1`, the peak concentration (Cmax) with Cynomolgus monkey [1] worked out at 13 ng/mL. Besides, the t1/2 in the data set with Cynomolgus monkey [2] worked out at 14.5 h. Also, the Activity came to 0.012 nmol/min with Liver microsomes [3] and 0.152 nmol/min in data set [6]. Besides, the time of peak concentration (Tmax) with Cynomolgus monkey [4] was 10 h. The area under the curve (AUC) in the data set with Cynomolgus monkey [5] worked out at 170 ng·h/mL.

Turning to `CC(C)N(CCCCOCC(=O)NS(=O)(=O)N1CCOCC1)c1cnc(-c2ccccc2)c(-c2ccccc2)n1`, the Activity in the data set with Liver microsomes [3] was determined as 0.015 nmol/min; in [6] it was 0.208 nmol/min.

For `CC(C)N(CCCCOCC(=O)NS(C)(=O)=O)c1cnc(-c2ccccc2)c(-c2ccccc2)n1` [SELEXIPAG], the Cmax in the data set on Cynomolgus monkey [1] worked out at 35 ng/mL. In addition, the Activity with Plasma is 0.5 nmol/min; in data set [7], 0%; in data set [8], 0%; in the data set on Liver microsomes [3], 0.019 nmol/min; in the data set on Liver microsomes [9] it was 0.09 nmol/min; in data set [10], 21.4%. The Activity was 0.03 nmol/min in data set [11] and 0.057 nmol/min in [6]. In the data set on Cynomolgus monkey [2], the t1/2 was 10.7 h. The time to peak (Tmax) in the data set with Cynomolgus monkey [4] was 14 h. Also, in the data set with Cynomolgus monkey [5], the area under the curve (AUC) is 859 ng·h/mL.

On to `CC(C)N(CCCCOCC(=O)NS(=O)(=O)C(F)(F)F)c1cnc(-c2ccccc2)c(-c2ccccc2)n1`, for which, in the data set on Cynomolgus monkey [1], the Cmax worked out at 31 ng/mL. The t1/2 in the data set with Cynomolgus monkey [2] turned out to be 8.5 h. For the same compound, the Activity with Liver microsomes [3] turned out to be 0.024 nmol/min; in data set [6] it was 0.06 nmol/min. In addition, the Tmax in the data set on Cynomolgus monkey [4] stood at 4 h. In addition, the AUC in the data set on Cynomolgus monkey [5] worked out at 308 ng·h/mL.

As for `CC(C)N(CCCCOCC(=O)NS(=O)(=O)c1cccs1)c1cnc(-c2ccccc2)c(-c2ccccc2)n1`, the Activity was 0.008 nmol/min in the data set on Liver microsomes [3] and 0.468 nmol/min in [6].

`CC(C)N(CCCCOCC(=O)NS(N)(=O)=O)c1cnc(-c2ccccc2)c(-c2ccccc2)n1`: the Cmax with Cynomolgus monkey [1] is 20 ng/mL. The figures for the Activity (with Liver microsomes [3]; in data set [6]) were 0.03 nmol/min and 0.112 nmol/min, respectively. The Tmax in the data set with Cynomolgus monkey [4] amounted to 6 h. For the same compound, the exposure (AUC) in the data set on Cynomolgus monkey [5] is 374 ng·h/mL.

On to `CC(C)N(CCCCOCC(=O)NS(=O)(=O)c1ccccc1)c1cnc(-c2ccccc2)c(-c2ccccc2)n1`, for which the Activity is recorded as 0.017 nmol/min in the data set on Liver microsomes [3] and 0.711 nmol/min in data set [6].

A word on the Cmax: it is the highest concentration seen after dosing. As a reminder, the Tmax is the time at which the peak concentration occurs. As usually defined, the AUC is the area under the concentration-time curve, a measure of exposure.
